Assay results from ChEMBL document CHEMBL1201862, “PubChem BioAssay data set” (2004).
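Test compounds were applied to cells in 96-well plates for 48 hours at 5 doses. Here, GI50 denotes the concentration required for 50% inhibition of growth.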 Calls of active or inactive are those of the source. Rule as the data show it: active = GI50 up to about 1.1 µM and inactive = higher.

Legend:
Test in all cases: DTP human tumour cell line panel, 48 h
CCRF-CEM = system: CCRF-CEM
K562 = system: K562
ACHN = system: ACHN
RXF 393 = system: RXF 393
COLO 205 = system: COLO 205
HCT-116 = system: HCT-116
M14 = system: M14
SF-268 = system: SF-268
SNB-75 = system: SNB-75
LOX IMVI = system: LOX IMVI
HOP-62 = system: HOP-62
RPMI-8226 = system: RPMI-8226
NCI-H226 = system: NCI-H226
SF-295 = system: SF-295
HT-29 = system: HT-29
TK-10 = system: TK-10
A549 = system: A549
SW-620 = system: SW-620
MCF7 = system: MCF7
NCI/ADR-RES = system: NCI/ADR-RES

| SMILES | GI50 (CCRF-CEM) | GI50 (K562) | GI50 (ACHN) | GI50 (RXF 393) | GI50 (COLO 205) | GI50 (HCT-116) | GI50 (M14) | GI50 (SF-268) | GI50 (SNB-75) | GI50 (LOX IMVI) | GI50 (HOP-62) | GI50 (RPMI-8226) | GI50 (NCI-H226) | GI50 (SF-295) | GI50 (HT-29) | GI50 (TK-10) | GI50 (A549) | GI50 (SW-620) | GI50 (MCF7) | GI50 (NCI/ADR-RES) |
| --- | --- | --- | --- | --- | --- | --- | --- | --- | --- | --- | --- | --- | --- | --- | --- | --- | --- | --- | --- | --- |
| CC(C)C(=O)N1C(=O)O[C@@H](c2ccccc2)[C@H]1C | > 100 µM (inactive) | > 100 µM (inactive) | > 100 µM (inactive) | > 84.1 µM (inactive) | > 100 µM (inactive) | > 100 µM (inactive) | > 100 µM (inactive) | > 100 µM (inactive) | > 100 µM (inactive) | > 100 µM (inactive) | > 100 µM (inactive) | > 100 µM (inactive) | > 100 µM (inactive) | > 100 µM (inactive) | > 100 µM (inactive) | > 100 µM (inactive) | > 100 µM (inactive) | – | – | – |
| O=C(COc1ccccc1)NS(=O)(=O)c1ccccc1 | > 100 µM (inactive) | > 100 µM (inactive) | > 100 µM (inactive) | > 100 µM (inactive) | > 100 µM (inactive) | > 100 µM (inactive) | > 100 µM (inactive) | > 100 µM (inactive) | > 100 µM (inactive) | > 100 µM (inactive) | > 100 µM (inactive) | > 100 µM (inactive) | > 100 µM (inactive) | > 100 µM (inactive) | > 100 µM (inactive) | > 100 µM (inactive) | > 100 µM (inactive) | > 100 µM (inactive) | – | – |
| CSc1ncnc2c1cnn2Cc1cn(CCCCO)nn1 | > 100 µM (inactive) | > 100 µM (inactive) | > 100 µM (inactive) | > 100 µM (inactive) | > 100 µM (inactive) | > 100 µM (inactive) | > 100 µM (inactive) | > 100 µM (inactive) | > 100 µM (inactive) | > 100 µM (inactive) | > 100 µM (inactive) | > 100 µM (inactive) | > 100 µM (inactive) | > 100 µM (inactive) | > 100 µM (inactive) | > 100 µM (inactive) | > 100 µM (inactive) | > 100 µM (inactive) | > 100 µM (inactive) | – |
| c1ccc(-c2sc(-c3ccccc3)c3c2C2CCC3C2)cc1 | 43.9 µM (inactive) | 35.2 µM (inactive) | 36.1 µM (inactive) | 24.3 µM (inactive) | 22.9 µM (inactive) | 27 µM (inactive) | 35.3 µM (inactive) | 53.3 µM (inactive) | – | 28.8 µM (inactive) | 38.2 µM (inactive) | 16.1 µM (inactive) | 32.5 µM (inactive) | 35.1 µM (inactive) | 18.6 µM (inactive) | 27 µM (inactive) | 28.6 µM (inactive) | 43.3 µM (inactive) | – | 29.8 µM (inactive) |
| CCC(=O)c1c(NOC2OCC(OC(C)=O)C(OC(C)=O)C2OC(C)=O)nc(OC)n(C)c1=O (stereo unspecified) | > 100 µM (inactive) | > 100 µM (inactive) | > 100 µM (inactive) | > 100 µM (inactive) | > 100 µM (inactive) | > 100 µM (inactive) | > 100 µM (inactive) | > 100 µM (inactive) | > 100 µM (inactive) | > 100 µM (inactive) | > 100 µM (inactive) | > 100 µM (inactive) | > 100 µM (inactive) | > 100 µM (inactive) | > 100 µM (inactive) | > 100 µM (inactive) | > 100 µM (inactive) | > 100 µM (inactive) | – | – |
| CC(=O)NNc1nc(C)c(C(/C=C/c2ccc(Cl)cc2)=N\N=C(N)N)s1 | > 100 µM (inactive) | > 100 µM (inactive) | > 100 µM (inactive) | > 100 µM (inactive) | > 100 µM (inactive) | > 100 µM (inactive) | 82.6 µM (inactive) | > 100 µM (inactive) | > 100 µM (inactive) | > 100 µM (inactive) | > 100 µM (inactive) | > 100 µM (inactive) | > 100 µM (inactive) | > 100 µM (inactive) | > 100 µM (inactive) | > 100 µM (inactive) | > 100 µM (inactive) | > 100 µM (inactive) | – | – |
| O=S(=O)(/C=C/c1ccc(Cl)cc1Cl)Cc1ccccc1CS(=O)(=O)/C=C/c1ccc(Cl)cc1Cl | 9.27 µM (inactive) | 61.1 µM (inactive) | 63.8 µM (inactive) | 65.2 µM (inactive) | > 100 µM (inactive) | 9.59 µM (inactive) | > 100 µM (inactive) | 40.5 µM (inactive) | 6.18 µM (inactive) | > 100 µM (inactive) | > 100 µM (inactive) | 5.15 µM (inactive) | > 100 µM (inactive) | 89.3 µM (inactive) | 49.4 µM (inactive) | > 100 µM (inactive) | 18 µM (inactive) | > 100 µM (inactive) | – | – |
| CC(=O)NC1=C(C)C(=O)c2c(nc3n2CCC3OC(=O)CCl)C1=O (stereo unspecified) | 1.45 µM (inactive) | 2.19 µM (inactive) | 20.7 µM (inactive) | 5.43 µM (inactive) | 17.5 µM (inactive) | 2.3 µM (inactive) | 18.2 µM (inactive) | 10.3 µM (inactive) | 16.3 µM (inactive) | 4.15 µM (inactive) | 17.1 µM (inactive) | 2.65 µM (inactive) | 2.52 µM (inactive) | 16.1 µM (inactive) | 15.6 µM (inactive) | 21 µM (inactive) | 12.9 µM (inactive) | 8.99 µM (inactive) | – | – |
| COc1cc(C(C)=O)cc(C(=O)N(C(C)C)C(C)C)c1[Si](C)(C)C | > 100 µM (inactive) | – | > 100 µM (inactive) | – | > 100 µM (inactive) | > 100 µM (inactive) | > 100 µM (inactive) | > 100 µM (inactive) | 9.2 µM (inactive) | > 100 µM (inactive) | > 100 µM (inactive) | – | > 100 µM (inactive) | > 100 µM (inactive) | – | > 100 µM (inactive) | 67.8 µM (inactive) | > 100 µM (inactive) | > 100 µM (inactive) | – |
| COC(=O)C1CC(=O)O[C@H]1c1ccc(OC)c(OC)c1 (stereo partly specified) | > 100 µM (inactive) | > 100 µM (inactive) | > 100 µM (inactive) | > 100 µM (inactive) | > 100 µM (inactive) | > 100 µM (inactive) | > 100 µM (inactive) | > 100 µM (inactive) | > 100 µM (inactive) | > 100 µM (inactive) | > 100 µM (inactive) | > 100 µM (inactive) | > 100 µM (inactive) | > 100 µM (inactive) | > 100 µM (inactive) | > 100 µM (inactive) | > 100 µM (inactive) | > 100 µM (inactive) | – | – |
| CC1CC(C)CC(C)C(O)/C(C#N)=C/C=C/CC(C2CCCC2C(=O)O)OC(=O)CC(O)C(C)C1 (stereo unspecified) | 0.0118 µM (active) | – | < 0.0194 µM (active) | < 0.01 µM (active) | 0.0225 µM (active) | 0.0223 µM (active) | < 0.0121 µM (active) | 0.0133 µM (active) | 0.0175 µM (active) | < 0.0109 µM (active) | 0.0148 µM (active) | < 0.0305 µM (active) | 0.0158 µM (active) | 0.0303 µM (active) | – | 0.0301 µM (active) | 0.053 µM (active) | 0.0335 µM (active) | 0.0102 µM (active) | – |
| COc1cc2cc3c4c(cc(OC)c(OC)c4c2cc1OC)CCN3 | 26.5 µM (inactive) | 27.9 µM (inactive) | 32.5 µM (inactive) | 25.1 µM (inactive) | 22.6 µM (inactive) | 36.6 µM (inactive) | 32.9 µM (inactive) | 34 µM (inactive) | 44 µM (inactive) | 28.6 µM (inactive) | > 100 µM (inactive) | 20 µM (inactive) | > 100 µM (inactive) | 37 µM (inactive) | 32.9 µM (inactive) | 74.5 µM (inactive) | > 100 µM (inactive) | 21.1 µM (inactive) | – | – |
| N#CC12Cc3ccc4c(c3-c3cccc(c31)CCN2C(=O)c1ccccc1)OCO4 (stereo unspecified) | > 100 µM (inactive) | > 100 µM (inactive) | 71.8 µM (inactive) | > 100 µM (inactive) | > 100 µM (inactive) | > 100 µM (inactive) | > 100 µM (inactive) | > 100 µM (inactive) | 34.7 µM (inactive) | > 100 µM (inactive) | > 100 µM (inactive) | > 100 µM (inactive) | > 100 µM (inactive) | > 100 µM (inactive) | > 100 µM (inactive) | > 100 µM (inactive) | > 100 µM (inactive) | > 100 µM (inactive) | – | – |
| COC(=O)CC(C(C(C)=O)C(=O)OCc1ccccc1)N1C(=O)OCC1c1ccccc1 (stereo unspecified) | > 100 µM (inactive) | > 100 µM (inactive) | > 100 µM (inactive) | > 100 µM (inactive) | > 100 µM (inactive) | > 100 µM (inactive) | > 100 µM (inactive) | > 100 µM (inactive) | 15.5 µM (inactive) | > 100 µM (inactive) | > 100 µM (inactive) | 51.5 µM (inactive) | 60.5 µM (inactive) | > 100 µM (inactive) | > 100 µM (inactive) | > 100 µM (inactive) | 62.8 µM (inactive) | > 100 µM (inactive) | – | – |
| O=C(O)C[C@@H](Cl)[C@H](NC(=O)OCc1ccccc1)C(=O)O | > 100 µM (inactive) | > 100 µM (inactive) | > 100 µM (inactive) | > 100 µM (inactive) | > 100 µM (inactive) | > 100 µM (inactive) | > 100 µM (inactive) | > 100 µM (inactive) | > 100 µM (inactive) | > 100 µM (inactive) | > 100 µM (inactive) | > 100 µM (inactive) | > 100 µM (inactive) | > 100 µM (inactive) | > 100 µM (inactive) | > 100 µM (inactive) | > 100 µM (inactive) | > 100 µM (inactive) | – | – |
